Source: patent US4933104A, “Anthraquinone derivative as a dichroic dye for a liquid-crystal material, liquid-crystal material and an electrooptical device” (priority 1986, dated 1990)
Several values for one entry are separate records, joined by “and”; a condition that tells them apart may be missing. Equal entries are not always repeated.

Legend:
Assay type in all cases: physicochemical
[1] = negative dichroism S in a liquid-crystalline mixture; conditions: liquid-crystalline mixture ZK-807
Experimental: (§1) Table 1 given below lists the values of negative dichroism of the anthraquinone derivative of general formula /1/ for examples 1-30 in a liquid-crystalline mixture ZK-807; Table 2 illustrates physico-chemical characteristics, and Table 3--limiting solubility in liquid-crystalline mixtures (ZK-807, ZLI-1840, 3010, SP-586, ZK-1282) at 20° C.

[2] = limiting solubility in liquid-crystalline mixtures at 20° C.; conditions: for solubility exceeds the solubility of the known analogue: ratio to known derivative, No. 2, 7 and 6 of Table 3 vs No. 1, 5 and 6 of Table 6; for Solubility (limiting), known derivatives: Table 6, derivatives of SU 1089084
[3] = λmax of the long-wave absorption band of the dye; conditions: Table 1 / Examples; several values = several maxima
Experimental: as §1

Row | negative dichroism S [1] | Solubility (limiting) ([2]; 3010, 20° C.) | Solubility (limiting) ([2]; ZK-807, 20° C.) | Solubility (limiting) ([2]; ZK-1282, 20° C.) | Solubility (limiting) ([2]; ZLI-1840, 20° C.) | λmax [3] | Solubility (limiting) ([2]; SP-586, 20° C.) | solubility exceeds the solubility of the known analogue [2] | Solubility (limiting), known derivatives ([2]; ZK-807, 20° C.) | Solubility (limiting), known derivatives ([2]; ZLI-1840, 20° C.) | Compound
1 | -0.33 | 1.0 mass % | 1.0 mass % | 1.0 mass % | 1.0 mass % | 562 nm and 603 nm |  |  |  |  | CCCCC[C@H]1CC[C@H](c2ccc(C(=O)Nc3ccc(O)c4c3C(=O)c3c(NC(=O)c5ccc([C@H]6CC[C@H](CCCCC)CC6)cc5)cc(C)c(O)c3C4=O)cc2)CC1 [Compound 27, 1,8-Bis-4-(trans-4-amylcyclohexyl)benzamido-3-methyl-4,5-dioxyanthraquinone]
2 | -0.34 |  |  |  |  | 566 nm and 608 nm |  |  |  |  | CCCCc1cc(NC(=O)c2ccc(C3CCC(CCCC)CC3)cc2)c2c(c1O)C(=O)c1c(O)c(CCCC)cc(NC(=O)c3ccc(C4CCC(CCCC)CC4)cc3)c1C2=O (centres unmarked) [Compound 30]
3 | -0.32 | 1.1 mass % | 0.6 mass % | 1.0 mass % | 1.0 mass % | 564 nm and 605 nm | 0.8 mass % |  |  |  | CCCCCC1CCC(c2ccc(C(=O)Nc3ccc(O)c4c3C(=O)c3c(NC(=O)c5ccc(C6CCC(CCCCC)CC6)cc5)cc(CCCC)c(O)c3C4=O)cc2)CC1 (centres unmarked) [Compound 28]
4 | -0.37 | 3.3 mass % |  | 2.7 mass % | 3.0 mass % | 542 nm |  |  |  |  | CCCCCC1CCC(c2ccc(C(=O)Nc3cc(CCCC)c(O)c4c3C(=O)c3c(NC(=O)c5ccc(C6CCC(CCCCC)CC6)cc5)cc(CCCC)c(OC(=O)C5CCC(CCCC)CC5)c3C4=O)cc2)CC1 (centres unmarked) [Compound 21]
5 | -0.33 | 6.0 mass % | 6.0 mass % |  | 5.5 mass % | 563 nm and 617 nm |  |  |  |  | CCCCCC1CCC(c2ccc(C(=O)Nc3cc(CCCC)c(O)c4c3C(=O)c3c(OC(=O)c5ccc(C6CCC(CCCCC)CC6)cc5)c(CCCC)cc(NC(=O)c5ccc(C6CCC(CCCCC)CC6)cc5)c3C4=O)cc2)CC1 (centres unmarked) [Compound 24]
6 | -0.32 | 1.0 mass % | 1.0 mass % | 1.0 mass % | 1.0 mass % | 563 nm and 606 nm |  |  |  |  | CCCCC[C@H]1CC[C@H](c2ccc(C(=O)Nc3cc(CCCC)c(O)c4c3C(=O)c3c(NC(=O)c5ccc([C@H]6CC[C@H](CCCCC)CC6)cc5)cc(CCCC)c(O)c3C4=O)cc2)CC1 [Compound 29, 1,8-Bis-4-(trans-4-amylcyclohexyl)benzamido-3,6-dibutyl-4,5-dioxyanthraquinone]
7 | -0.30 | 0.9 mass % | 3.0 mass % |  | 1.0 mass % | 540 nm |  |  |  |  | CCCCCc1cc(NC(=O)c2ccc(CCCC)cc2)c2c(c1O)C(=O)c1c(OC(=O)c3ccc(CCCC)cc3)c(CCCCC)cc(NC(=O)c3ccc(CCCC)cc3)c1C2=O [Compound 25]
8 | -0.31 | 1.0 mass % | 2.9 mass % | 0.7 mass % | 1.1 mass % | 542 nm |  |  |  |  | CCCCCCc1ccc(C(=O)Nc2cc(CCCCC)c(O)c3c2C(=O)c2c(NC(=O)c4ccc(CCCCCC)cc4)cc(CCCCC)c(OC(=O)c4ccc(CCCCCC)cc4)c2C3=O)cc1 [Compound 26]
9 |  |  |  |  |  |  |  |  | 0.9 mass % | 0.5 mass % | CCCCCc1ccc(-c2ccc(C(=O)Nc3ccc(NCCCC)c4c3C(=O)c3ccccc3C4=O)cc2)cc1 [No. 2, Table 6, reference compound]
10 |  |  |  |  |  |  |  |  | 0.8 mass % | 0.4 mass % | CCCCCCCCc1ccc(-c2ccc(C(=O)Nc3ccc(NCCCC)c4c3C(=O)c3ccccc3C4=O)cc2)cc1 [No. 1, Table 6, reference compound]

The remaining lines, values behind:

Row | Compound | negative dichroism S [1] | Solubility (limiting) ([2]; 3010, 20° C.) | Solubility (limiting) ([2]; ZK-807, 20° C.) | Solubility (limiting) ([2]; ZK-1282, 20° C.) | Solubility (limiting) ([2]; ZLI-1840, 20° C.) | λmax [3] | Solubility (limiting) ([2]; SP-586, 20° C.) | solubility exceeds the solubility of the known analogue [2] | Solubility (limiting), known derivatives ([2]; ZK-807, 20° C.) | Solubility (limiting), known derivatives ([2]; ZLI-1840, 20° C.)
11 | CCCCCC1CCC(c2ccc(C(=O)Nc3cc(CCCC)c(OC(=O)c4ccc(C5CCC(CCCCC)CC5)cc4)c4c3C(=O)c3c(NC(=O)c5ccc(C6CCC(CCCCC)CC6)cc5)cc(CCCC)c(OC(=O)c5ccc(C6CCC(CCCCC)CC6)cc5)c3C4=O)cc2)CC1 (centres unmarked) [Compound 8] | -0.38 | 2.6 mass % | 11.0 mass % | 1.8 mass % | 5.7 mass % | 466 nm |  |  |  | 
12 | CCCCCC1CCC(c2ccc(C(=O)Nc3cc(CCCC)c(OC(=O)C4CCC(CCCC)CC4)c4c3C(=O)c3c(NC(=O)c5ccc(C6CCC(CCCCC)CC6)cc5)cc(CCCC)c(OC(=O)C5CCC(CCCC)CC5)c3C4=O)cc2)CC1 (centres unmarked) [Compound 9] | -0.38 | 9.0 mass % | 9.0 mass % |  | 7.7 mass % | 475 nm |  |  |  | 
13 | CCCCc1ccc(C(=O)Nc2cc(CCCC)c(OC(=O)c3ccc(CCCC)cc3)c3c2C(=O)c2c(NC(=O)c4ccc(CCCC)cc4)cc(CCCC)c(OC(=O)c4ccc(CCCC)cc4)c2C3=O)cc1 [Compound 6, 1,8-Bis-(4-butylbenzamido)-4,5-bis-(4.butylbenzoyloxy)-3,6-dibutylanthraquinone] | -0.33 | 4.6 mass % | 9.0 mass % | 4.0 mass % |  | 468 nm | 4.0 mass % | 18 times |  | 
14 | CCCCCC1CCC(c2ccc(C(=O)Nc3ccc(OC(=O)c4ccc(C5CCC(CCCCC)CC5)cc4)c4c3C(=O)c3c(NC(=O)c5ccc(C6CCC(CCCCC)CC6)cc5)cc(C)c(OC(=O)c5ccc(C6CCC(CCCCC)CC6)cc5)c3C4=O)cc2)CC1 (centres unmarked) [Compound 4] | -0.36 | 3.0 mass % | 1.0 mass % |  | 1.5 mass % | 468 nm | 1.9 mass % |  |  | 
15 | CCCCCc1cc(NC(=O)c2ccc(CCCC)cc2)c2c(c1OC(=O)c1ccc(CCCC)cc1)C(=O)c1c(OC(=O)c3ccc(CCCC)cc3)c(CCCCC)cc(NC(=O)c3ccc(CCCC)cc3)c1C2=O [Compound 14] | -0.32 | 4.46 mass % | 9.5 mass % | 4.0 mass % | 3.8 mass % | 458 nm and 470 nm | 3.78 mass % |  |  | 
16 | CCCCc1ccc(C(=O)Nc2cc(CCCC)c(NC(=O)c3ccc(CCCC)cc3)c3c2C(=O)c2ccccc2C3=O)cc1 [Compound 2, 1,4-Bis(4-butylbenzamido)-2-butylanthraquinone] | -0.22 |  | 4.0 mass % |  | 3.6 mass % | 475 nm | 2.9 mass % | 2.5 times |  | 
17 | CCCCc1cc(NC(=O)C2CCC(CCCC)CC2)c2c(c1OC(=O)c1ccc(C3CCC(CCCC)CC3)cc1)C(=O)c1c(OC(=O)c3ccc(C4CCC(CCCC)CC4)cc3)c(CCCC)cc(NC(=O)C3CCC(CCCC)CC3)c1C2=O (centres unmarked) [Compound 10] | -0.35 | 9.0 mass % | 10.8 mass % |  | 7.2 mass % | 466 nm | 7.5 mass % |  |  | 
18 | CCCCc1ccc(C(=O)Nc2cc(CCCC)c(O)c3c2C(=O)c2c(NC(=O)c4ccc(CCCC)cc4)cc(CCCC)c(OC(=O)c4ccc(CCCC)cc4)c2C3=O)cc1 [Compound 18, 1,8-bis-(4-butylbenzamido)-4-(4-butylbenzoyloxy)-3,6-dibutyl-5-oxyanthraquinone] | -0.31 | 0.7 mass % | 2.7 mass % |  |  | 534 nm |  |  |  | 
19 | CCCCCC1CCC(c2ccc(C(=O)Nc3cc(CCCC)c(O)c4c3C(=O)c3c(NC(=O)c5ccc(C6CCC(CCCCC)CC6)cc5)cc(CCCC)c(OC(=O)c5ccc(C6CCC(CCCCC)CC6)cc5)c3C4=O)cc2)CC1 (centres unmarked) [Compound 19] | -0.38 | 4.8 mass % |  |  | 2.5 mass % | 540 nm | 2.9 mass % |  |  | 
20 | CCCCCC1CCC(c2ccc(C(=O)Nc3cc(CCCC)c(OC(=O)CCC)c4c3C(=O)c3c(NC(=O)c5ccc(C6CCC(CCCCC)CC6)cc5)cc(CCCC)c(OC(=O)CCC)c3C4=O)cc2)CC1 (centres unmarked) [Compound 12] | -0.35 | 1.82 mass % | 5.2 mass % |  |  | 473 nm |  |  |  | 
21 | CCCCCCCCNc1cc(CCCC)c(NC(=O)c2ccc(-c3ccc(CCCCCCCC)cc3)cc2)c2c1C(=O)c1ccccc1C2=O [Compound 1] |  |  | 2.0 mass % |  |  |  |  |  |  | 
22 | CCCCCCc1ccc(C(=O)Nc2cc(CCCC)c(OC(=O)c3ccc(CCCCCC)cc3)c3c2C(=O)c2c(NC(=O)c4ccc(CCCCCC)cc4)cc(CCCC)c(OC(=O)c4ccc(CCCCCC)cc4)c2C3=O)cc1 [Compound 7] | -0.26 |  | 5.0 mass % |  |  | 434 nm and 455 nm |  | 10 times |  | 
23 | CCCCc1ccc(C(=O)Nc2ccc(OC(=O)c3ccc(CCCC)cc3)c3c2C(=O)c2c(NC(=O)c4ccc(CCCC)cc4)cc(C)c(OC(=O)c4ccc(CCCC)cc4)c2C3=O)cc1 [Compound 3, 1,8Bis-(4-butylbenzamido)-4,5-bis-(4-butylbenzoyloxy)-3-methylanthraquinone] | -0.34 | 1.1 mass % | 5.0 mass % |  | 1.0 mass % | 465 nm | 2.0 mass % |  |  | 
